Columns and labels:
[1] = tested on: human small cell lung cancer NCI-H1417 cells subcutaneous xenograft tumor; assay: In vivo pharmacodynamic study, NCI-H1417 subcutaneous xenograft tumor CB-17 SCID mouse model; design: species or system CB-17 SCID mice
Description: The purpose of this experiment was to investigate the efficacy of some of the compounds of the present invention in the in vivo xenograft tumor of human small cell lung cancer NCI-H1417 cells in a CB-17 SCID mouse model.
Week age and weight: 6-8 weeks old, weight 18-23 g
Human small cell lung cancer NCI-H1417 cells were cultured in vitro in a single layer cultured in RPMI-1640 medium (Sigma-aldrich, R0883), supplemented with 10% fetal bovine serum and cultured at 37° C. 5% CO2. When the cell saturation is 80%-90%. The cells are harvested, counted, and inoculated.
0.2 mL of 10×10^6 (NCI-H1417 cells were subcutaneously inoculated into the right back of each mouse (PBS:Matrigel=1:1). After 21 days of tumor inoculation, group administration was started when the average volume reached 107 mm^3.
The experimental solvent was the 10% hydroxypropyl-β-cyclodextrin solution. The preparation method was as follows: 100 g of hydroxypropyl-β-cyclodextrin was weighed into a 1000 mL jar, 800 mL of ultrapure water was added, stirred overnight until completely dissolved, and then made up to 1000 mL. The test substance was dissolved in a solvent, and was prepared into a uniform solution of a certain concentration and stored at 4° C.
The experimental indicator is to investigate whether tumor growth is inhibited, delayed or cured. Tumor diameters were measured twice a week using vernier calipers. The tumor volume is calculated as: V=0.5a×b^2, and a and b represent the long and short diameters of the tumor, respectively.
The antitumor effect of the compound was evaluated by TG (%). TGI (%), reflecting the tumor growth inhibition rate. TGI (%) calculation: TGI (%)=[1−(the average tumor volume at the end of a treatment group−the average tumor volume at the beginning of the treatment group)/(the average tumor volume at the end of the treatment of the solvent control group−The average tumor volume at the start of treatment in the solvent control group) was ×100%. Solvent control: Vehicle (10% hydroxypropyl-β-cyclodextrin solution).

human LSD1 = human LSD1 (Homo sapiens (Human), UniProt O60341); assay: Evaluation of enzyme activity: LSD1 fluorescence coupling enzyme assay (HRP/Amplex Red); assay type: biochemical; conditions: human LSD1, histone H3(1-21)K4me2 peptide 10 μM, 30 min pre-incubation
Procedure, shortened: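 Human LSD1 preincubated 30 min with compound, then reacted with H3(1-21)K4me2 peptide (10 μM). FAD-dependent H2O2 detected via HRP/Amplex Red fluorescence (Ex/Em 535/590). Ten-dose, 3-fold dilutions in duplicate from 10 μM gave IC50s, binned into activity classes.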

[2] = Pharmacokinetic evaluation in C57BL/6 mice after intravenous and oral administration; assay type: in vivo; conditions: male, mouse, plasma; for Cmax / clearance / half-life / Vd: IV 1 mg/kg; for Cmax: oral 2 mg/kg, route of Cmax not stated, read-out: max concentration Cmax; for clearance: read-out: clearance CL; for half-life: read-out: half-life T1/2 (IV, h) (converted); for Vd: read-out: volumes of distribution Vdss; for bioavailability: PO 2 mg/kg vs IV 1 mg/kg, read-out: bioavailability F (%); for AUC(0-t): PO 2 mg/kg, read-out: the area under the plasma concentration-time curve AUC0-last PO
Description: Experimental purposes: To test the pharmacokinetics of compounds in C57BL/6 mice
C57BL/6 mice (male, 7-9 weeks old, Shanghai Slack)
Test the pharmacokinetics characteristics of rodents after intravenous and oral administration in accordance with standard protocols, and the candidate compound was formulated into a clear solution in the experiment. The mice were administered by intravenous injection and orally once. The intravenous and oral vehicle is a 10% aqueous solution of hydroxypropyl β-cyclodextrin or a physiological saline solution. Six male C57BL/6 mice were employed in this assay, three of them were administered intravenously at a dose of 1 mg/kg, plasma samples were collected at 0 h (before administration) and 0.0833, 0.25, 0.5, 1, 2, 4, 7, 24 h after administration. Another three mice were administered by oral gavage at a dose of 2 mg/kg, plasma samples were collected at 0 h (before administration) and 0.5, 1, 2, 3, 4, 6, 24 h after administration. Collect whole blood samples within 24 hours, centrifuge at 3000 g for 15 minutes, separate the supernatant to obtain a plasma sample, 4 times volume of the internal standard acetonitrile solution was added to precipitate the protein. Centrifuge the supernatant and add an equal volume of water and centrifuge to take the supernatant. LC-MS/MS was used to quantitatively analyze plasma concentrations and calculate pharmacokinetic parameters such as max concentration (Cmax), clearance (CL), half-life (T1/2), volumes of distribution (Vdss), the area under the plasma concentration-time curve (AUC0-last), bioavailability (F), etc.

H1417 cells = assay: Cell proliferation inhibitory activity on H1417 cells (CellTiter-Glo, 10 days); assay type: cell-based, human; conditions: for IC50: 10 days incubation; for Emax: NCI-H1417, H1417 cells, read-out: Maximum inhibition percentage (%)
Procedure, shortened: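 H1417 cells in RPMI 1640 with fetal bovine serum were treated with 10-point 3-fold compound dilutions for 10 days. Viability was read by CellTiter-Glo luminescence. IC50 came from a four-parameter fit of percent inhibition, and maximal inhibition was also categorized.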

[3] = 1 mg/kg, ip, BIW, day 28 after administration
[4] = 1 mg/kg, ip, BIW, day 34 after administration
[5] = Homo sapiens, NCI-H1417, 240 h, H1417 cells
[6] = Homo sapiens, highest percentage inhibition of cell viability
[7] = 5 mg/kg, PO, QD, day 34 after administration
[8] = 1.5 mg/kg, PO, QD, day 27 after administration
[9] = 2.5 mg/kg, PO, BID, day 34 after administration

| IC50 (human LSD1) [nM] | Cmax [2] [ng/mL] | clearance [2] [mL/min/kg] | half-life [2] [h] | Vd [2] [L/kg] | bioavailability [2] [%] | AUC(0-t) [2] [µM·h] | IC50 (H1417 cells; [5]) [nM] | SMILES | Emax (H1417 cells; [6]) [%] | further results |
| --- | --- | --- | --- | --- | --- | --- | --- | --- | --- | --- |
| 50 to 100 |  |  |  |  |  |  |  | N[C@H]1CC[C@H](c2nc(C3(CN[C@H]4C[C@@H]4c4ccccc4)CC3)no2)CC1 [Example 143] |  | TGI (%) [1, 7]: 93.3%; Tumor volume (mm^3) (Day 34) [1, 7]: 145 ± 29 mm^3; IC50 (H1417 cells; H1417 cells): 500 to 1000 nM; Maximum inhibition percentage (%) (H1417 cells; H1417 cells, highest percentage inhibition of cell viability): C (70%>C≥50%) |
| ≤ 50 |  |  |  |  |  |  | 100 to 500 | NC1CC2(C1)CC(c1nc(C3(CN[C@@H]4C[C@H]4c4ccccc4)CC3)no1)C2 (stereo partly shown) [Example 151] | 90 to 100 | TGI (%) [1, 8]: 66.3%; Tumor volume (mm^3) (Day 27) [1, 8]: 250 ± 50 mm^3 |
| 100 to 500 | 5090 | 11.6 | 1.4 | 0.4 | 48.1 | 3.51 |  | O=C(O)[C@H]1CC[C@H](c2nc(C3(CN[C@@H]4C[C@H]4c4ccccc4)CC3)no2)CC1 [Example 167] |  | TGI (%) [1, 9]: 81.4%; Tumor volume (mm^3) (Day 34) [1, 9]: 213 ± 37 mm^3; TGI (%) [1, 7]: 78.2%; Tumor volume (mm^3) (Day 34) [1, 7]: 231 ± 28 mm^3 |
|  | 3210 | 9.9 | 1.6 | 0.5 | 51.5 | 3.86 | 500 to 1000 | O=C(O)C12CCC(c3nc(C4(CN[C@H]5CC5c5ccccc5)CC4)no3)(CC1)CC2 (stereo partly shown) [Example 177] | 50 to 70 |  |
|  | 58.5 | 112 | 2.97 | 21.7 | 35.1 | 0.273 |  | CC1(c2nc(C3(CN[C@@H]4C[C@H]4c4ccccc4)CC3)no2)CCC(N)CC1 (stereo partly shown) [Example 224] |  |  |
| 100 to 500 | 497 | 62.4 | 0.34 | 0.99 | 28 | 0.37 | ≤ 100 | O=C(O)C1(CN2CCC(c3nc(C4(CN[C@@H]5C[C@H]5c5ccccc5)CC4)no3)CC2)CCC1 [Example 235] | 70 to 90 |  |
| ≤ 50 |  |  |  |  |  |  | 500 to 1000 | c1ccc([C@@H]2C[C@H]2NCC2(c3noc(N4CCNCC4)n3)CC2)cc1 [Example 246] | 90 to 100 |  |
| ≤ 50 |  |  |  |  |  |  | 500 to 1000 | CN1CCN(c2nc(C3(CN[C@@H]4C[C@H]4c4ccccc4)CC3)no2)CC1 [Example 247] | 90 to 100 |  |

More lines, now with the values behind:

| SMILES | IC50 (human LSD1) [nM] | Cmax [2] [ng/mL] | clearance [2] [mL/min/kg] | half-life [2] [h] | Vd [2] [L/kg] | bioavailability [2] [%] | AUC(0-t) [2] [µM·h] | IC50 (H1417 cells; [5]) [nM] | Emax (H1417 cells; [6]) [%] | further results |
| --- | --- | --- | --- | --- | --- | --- | --- | --- | --- | --- |
| N.N.[Cl][Pt][Cl] [Cisplatin] |  |  |  |  |  |  |  |  |  | TGI (%) [1, 3]: 90%; Tumor volume (mm^3) (Day 28) [1, 3]: 150 ± 9 mm^3; TGI (%) [1, 4]: 61.2%; Tumor volume (mm^3) (Day 34) [1, 4]: 328 ± 37 mm^3 |
| N#Cc1ccc(-c2nc(C3(CN[C@H]4CC4c4ccccc4)CC3)no2)cc1 (stereo partly shown) [Example 64] | ≤ 50 | 1290 | 21.9 | 1.3 | 1.9 | 44 | 1.88 | 100 to 500 | 90 to 100 |  |
| Clc1ccc(-c2nc(C3(CN[C@H]4CC4c4ccccc4)CC3)no2)cc1 (stereo partly shown) [Example 65] | ≤ 50 | 2070 | 10.6 | 4.2 | 3 | 49 | 3.38 | 100 to 500 | 90 to 100 |  |
| FC(F)(F)c1ccc(-c2nc(C3(CN[C@H]4CC4c4ccccc4)CC3)no2)cn1 (stereo partly shown) [Example 66] | ≤ 50 | 2140 | 13.1 | 1.5 | 1.4 | 57 | 3.51 | 500 to 1000 | 90 to 100 |  |
| N[C@H]1CC[C@H](c2nc(C3(CN[C@H]4CC4c4ccccc4)CC3)no2)CC1 (stereo partly shown) [Example 142] | ≤ 50 |  |  |  |  |  |  | 500 to 1000 | 70 to 90 | TGI (%) [1, 7]: 94.9%; Tumor volume (mm^3) (Day 34) [1, 7]: 136 ± 21 mm^3 |
| O=C(O)c1ccc(CN2CCC(c3nc(C4(CN[C@@H]5CC5c5ccccc5)CC4)no3)CC2)cc1 (stereo partly shown) [Example 169] |  | 763 | 43.4 | 1 | 0.5 | 20.6 | 0.329 | 500 to 1000 | 50 to 70 |  |
| O=C(O)[C@@H]1CCCN1CC1(CN[C@H]2CC2c2ccccc2)CC1 (stereo partly shown) [Example 210] | ≤ 50 | 815 | 37.7 | 2.7 | 2.6 | 40.5 | 1.13 | 500 to 1000 | 50 to 70 |  |
| O=C(N1CCC(c2nc(C3(CN[C@H]4CC4c4ccccc4)CC3)no2)CC1)C(F)(F)F (stereo partly shown) [Example 226] | ≤ 50 |  |  |  |  |  |  | ≤ 100 | 90 to 100 |  |
| O=C(O)[C@H](Cc1c[nH]c2ccccc12)NCC1(CN[C@@H]2C[C@H]2c2ccccc2)CC1 [Example 227] | 100 to 500 |  |  |  |  |  |  | ≤ 100 | 50 to 70 |  |
| c1ccc([C@@H]2C[C@H]2NCC2(CN3CCCNCC3)CC2)cc1 [Example 230] | 100 to 500 |  |  |  |  |  |  | 100 to 500 | 50 to 70 |  |
| N[C@H]1CC[C@H](c2nc(C3(CN[C@@H]4C[C@H]4c4ccccc4)CCC3)no2)CC1 [Example 233] | 100 to 500 |  |  |  |  |  |  | 100 to 500 | 70 to 90 |  |
| N[C@H]1CC[C@H](c2noc(C3(CN[C@@H]4C[C@H]4c4ccccc4)CC3)n2)CC1 [Example 242] | ≤ 50 | 179 | 72.1 | 2 | 10.3 | 57.5 | 0.712 | ≤ 100 | 90 to 100 |  |
| NC1CCC(c2nc(C3(CN[C@@H]4C[C@H]4c4ccccc4)CC3)no2)CC1(F)F (stereo partly shown) [Example 244] | ≤ 50 |  |  |  |  |  |  | ≤ 100 | 70 to 90 |  |

— patent publication US11433053B2, “LSD1 inhibitor and preparation method and application thereof” (CSPC ZHONGQI PHARMACEUTICAL TECHNOLOGY (SHIJIAZHUANG) CO., …, priority 2017, dated 2022)
